Results taken from ChEMBL document CHEMBL4024706 (Eur J Med Chem, 2017).

Legend:
[1] = test system: Receptor-type tyrosine-protein kinase FLT3 (Homo sapiens), P36888 [R834Q]; experiment: Inhibition of human partial length FLT3 R834Q mutant (V592 to Y969 residues) expressed in mammalian expression system assessed as residual activity at 1 uM by Kinomescan method relative to control
[2] = target: Mast/stem cell growth factor receptor Kit (Homo sapiens) (UniProt P10721); experiment: Inhibition of wild-type human partial length KIT (I571 to D952 residues) expressed in bacterial expression system assessed as residual activity at 1 uM by Kinomescan method relative to control
Chain of Mast/stem cell growth factor receptor Kit (Homo sapiens) (P10721 whole entry, the tested form may be a part): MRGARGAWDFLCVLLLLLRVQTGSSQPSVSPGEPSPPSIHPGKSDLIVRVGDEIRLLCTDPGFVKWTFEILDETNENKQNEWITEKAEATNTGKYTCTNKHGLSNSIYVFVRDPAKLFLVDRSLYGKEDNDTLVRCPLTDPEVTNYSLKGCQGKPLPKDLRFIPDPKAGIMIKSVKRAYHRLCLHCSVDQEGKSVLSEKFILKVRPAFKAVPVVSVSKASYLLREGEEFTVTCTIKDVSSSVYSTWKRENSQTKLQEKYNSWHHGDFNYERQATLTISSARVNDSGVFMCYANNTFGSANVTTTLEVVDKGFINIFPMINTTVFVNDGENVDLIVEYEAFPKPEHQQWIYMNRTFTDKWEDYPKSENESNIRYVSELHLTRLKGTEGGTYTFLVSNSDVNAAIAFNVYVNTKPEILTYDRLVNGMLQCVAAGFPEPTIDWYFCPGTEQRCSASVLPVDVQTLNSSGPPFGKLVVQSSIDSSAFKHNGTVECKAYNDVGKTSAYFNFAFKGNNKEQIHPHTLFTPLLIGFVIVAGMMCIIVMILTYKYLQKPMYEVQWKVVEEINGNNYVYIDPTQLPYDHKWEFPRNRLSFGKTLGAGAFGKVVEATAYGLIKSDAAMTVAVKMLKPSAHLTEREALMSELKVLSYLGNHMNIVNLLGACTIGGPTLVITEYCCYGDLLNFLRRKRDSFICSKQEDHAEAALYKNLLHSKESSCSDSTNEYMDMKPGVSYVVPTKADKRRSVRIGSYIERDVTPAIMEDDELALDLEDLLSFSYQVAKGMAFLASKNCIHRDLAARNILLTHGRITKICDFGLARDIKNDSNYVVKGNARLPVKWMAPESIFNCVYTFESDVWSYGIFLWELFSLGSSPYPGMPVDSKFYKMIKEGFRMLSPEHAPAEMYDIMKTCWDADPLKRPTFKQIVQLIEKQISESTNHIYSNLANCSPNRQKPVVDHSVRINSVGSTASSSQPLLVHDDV

[3] = target: Dual specificity testis-specific protein kinase 1 (Homo sapiens) (UniProt Q15569); experiment: Inhibition of wild-type human […] length TESK1 (R37 to S626 residues) expressed in bacterial expression system assessed as residual activity at 1 uM by Kinomescan method relative to control
[4] = target: Casein kinase I isoform epsilon (Homo sapiens) (UniProt P49674); experiment: Inhibition of wild-type human full length CSNK1E (M1 to K416 residues) expressed in bacterial expression system assessed as residual activity at 1 uM by Kinomescan method relative to control
Chain of Casein kinase I isoform epsilon (Homo sapiens) (P49674 whole entry, looked up, the tested form may be a part, canonical isoform): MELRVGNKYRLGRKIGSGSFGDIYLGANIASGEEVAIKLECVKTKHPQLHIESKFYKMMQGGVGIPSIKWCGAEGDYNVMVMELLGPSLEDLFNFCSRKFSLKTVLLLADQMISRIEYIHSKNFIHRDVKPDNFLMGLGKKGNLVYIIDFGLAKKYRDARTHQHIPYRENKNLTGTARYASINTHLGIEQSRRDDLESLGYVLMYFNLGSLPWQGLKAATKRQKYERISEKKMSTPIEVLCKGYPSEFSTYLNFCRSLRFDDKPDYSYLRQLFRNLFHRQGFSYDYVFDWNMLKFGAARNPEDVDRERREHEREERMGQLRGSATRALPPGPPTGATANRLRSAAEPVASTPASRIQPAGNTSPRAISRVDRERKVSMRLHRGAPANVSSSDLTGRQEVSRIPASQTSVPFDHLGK

[5] = target: Ribosomal protein S6 kinase alpha-4 (Homo sapiens) (UniProt O75676); experiment: Inhibition of wild-type human partial length N-terminal RPS6KA4 kinase domain 1 expressed in bacterial expression system assessed as residual activity at 1 uM by Kinomescan method relative to control
[6] = target: Tyrosine-protein kinase TXK (Homo sapiens) (UniProt P42681); experiment: Inhibition of wild-type human partial length TXK (L238 to W527 residues) expressed in bacterial expression system assessed as residual activity at 1 uM by Kinomescan method relative to control
Chain of Tyrosine-protein kinase TXK (Homo sapiens) (P42681 whole entry, the tested form may be a part, canonical isoform): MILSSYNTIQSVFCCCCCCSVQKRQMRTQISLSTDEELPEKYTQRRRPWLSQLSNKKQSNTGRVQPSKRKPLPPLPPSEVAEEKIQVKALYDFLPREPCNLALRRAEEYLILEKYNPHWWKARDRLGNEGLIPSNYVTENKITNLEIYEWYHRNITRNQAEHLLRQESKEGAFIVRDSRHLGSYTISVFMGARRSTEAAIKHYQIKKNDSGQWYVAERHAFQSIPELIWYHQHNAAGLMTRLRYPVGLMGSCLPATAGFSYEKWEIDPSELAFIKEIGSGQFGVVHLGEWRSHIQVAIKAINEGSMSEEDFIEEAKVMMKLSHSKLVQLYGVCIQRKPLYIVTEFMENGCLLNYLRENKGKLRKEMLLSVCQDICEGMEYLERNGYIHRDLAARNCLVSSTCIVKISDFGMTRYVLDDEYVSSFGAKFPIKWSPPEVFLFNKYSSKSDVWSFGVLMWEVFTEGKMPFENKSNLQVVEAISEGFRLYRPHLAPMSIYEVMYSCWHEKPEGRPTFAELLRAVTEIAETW

[7] = target: Casein kinase I isoform gamma-1 (Homo sapiens) (UniProt Q9HCP0); experiment: Inhibition of wild-type human partial length CSNK1G1 (T15 to S353 residues) expressed in bacterial expression system assessed as residual activity at 1 uM by Kinomescan method relative to control
Chain of Casein kinase I isoform gamma-1 (Homo sapiens) (Q9HCP0 whole entry, looked up, the tested form may be a part, canonical isoform): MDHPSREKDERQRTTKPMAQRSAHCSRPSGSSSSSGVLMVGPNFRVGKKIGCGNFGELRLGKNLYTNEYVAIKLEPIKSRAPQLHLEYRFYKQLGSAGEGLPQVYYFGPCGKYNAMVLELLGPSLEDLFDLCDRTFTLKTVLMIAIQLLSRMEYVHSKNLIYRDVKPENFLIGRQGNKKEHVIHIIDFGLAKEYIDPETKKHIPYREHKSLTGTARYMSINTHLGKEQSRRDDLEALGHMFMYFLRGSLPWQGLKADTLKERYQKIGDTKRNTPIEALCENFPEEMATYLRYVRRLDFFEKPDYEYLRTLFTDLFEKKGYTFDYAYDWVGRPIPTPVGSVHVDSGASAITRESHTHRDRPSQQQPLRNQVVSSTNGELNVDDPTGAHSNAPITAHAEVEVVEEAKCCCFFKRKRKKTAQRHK

[8] = target: Serine/threonine-protein kinase 17A (Homo sapiens) (UniProt Q9UEE5); experiment: Inhibition of wild-type human partial length DRAK1 (R32 to E363 residues) expressed in bacterial expression system assessed as residual activity at 1 uM by Kinomescan method relative to control
[9] = target: Cyclin-dependent kinase 3 (Homo sapiens) (UniProt Q00526); experiment: Inhibition of wild-type human full length CDK3 (M1 to H305 residues) expressed in bacterial expression system assessed as residual activity at 1 uM by Kinomescan method relative to control
[10] = test system: Tyrosine-protein kinase ABL1 (Homo sapiens), P00519 [F317I]; experiment: Inhibition of human non-phosphorylated ABL1 F317I mutant (S229 to K512 residues) expressed in mammalian expression system assessed as residual activity at 1 uM by Kinomescan method relative to control
Chain of Tyrosine-protein kinase ABL1 (Homo sapiens), P00519 [F317I] (P00519 whole entry F317I, the tested form may be a part): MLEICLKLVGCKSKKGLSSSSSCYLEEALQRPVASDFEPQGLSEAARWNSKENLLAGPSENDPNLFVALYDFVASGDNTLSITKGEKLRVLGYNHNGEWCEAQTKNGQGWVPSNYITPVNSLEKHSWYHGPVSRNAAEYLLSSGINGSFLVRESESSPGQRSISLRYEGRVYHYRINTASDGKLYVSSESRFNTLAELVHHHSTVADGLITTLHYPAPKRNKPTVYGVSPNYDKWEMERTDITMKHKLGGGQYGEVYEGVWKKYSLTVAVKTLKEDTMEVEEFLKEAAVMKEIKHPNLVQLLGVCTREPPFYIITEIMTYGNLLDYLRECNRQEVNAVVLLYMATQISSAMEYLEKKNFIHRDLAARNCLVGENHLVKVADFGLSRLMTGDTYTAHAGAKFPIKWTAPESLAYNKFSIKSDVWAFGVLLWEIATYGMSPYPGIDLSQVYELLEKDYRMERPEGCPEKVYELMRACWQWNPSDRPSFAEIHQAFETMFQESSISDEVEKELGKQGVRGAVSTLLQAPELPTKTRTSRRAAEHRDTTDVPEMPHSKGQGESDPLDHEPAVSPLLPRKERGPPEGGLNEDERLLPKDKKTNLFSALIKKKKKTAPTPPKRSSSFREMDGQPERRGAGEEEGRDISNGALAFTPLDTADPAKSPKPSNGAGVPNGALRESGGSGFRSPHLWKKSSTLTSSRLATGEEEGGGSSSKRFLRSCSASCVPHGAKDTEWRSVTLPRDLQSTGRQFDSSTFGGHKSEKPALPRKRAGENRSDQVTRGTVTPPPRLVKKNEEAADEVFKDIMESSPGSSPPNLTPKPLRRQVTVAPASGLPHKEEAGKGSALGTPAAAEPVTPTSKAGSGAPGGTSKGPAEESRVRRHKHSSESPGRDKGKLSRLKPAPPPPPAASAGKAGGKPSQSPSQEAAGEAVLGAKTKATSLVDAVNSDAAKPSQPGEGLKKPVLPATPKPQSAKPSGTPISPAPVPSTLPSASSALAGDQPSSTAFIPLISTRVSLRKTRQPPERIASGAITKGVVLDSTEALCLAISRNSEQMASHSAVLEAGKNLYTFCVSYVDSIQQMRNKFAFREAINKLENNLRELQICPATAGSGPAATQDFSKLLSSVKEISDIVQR

[11] = target: Myosin light chain kinase family member 4 (Homo sapiens) (UniProt Q86YV6); experiment: Inhibition of wild-type human partial length MYLK4 (V79 to S380 residues) expressed in bacterial expression system assessed as residual activity at 1 uM by Kinomescan method relative to control
[12] = target: Mitogen-activated protein kinase kinase kinase 20 (Homo sapiens) (UniProt Q9NYL2); experiment: Inhibition of wild-type human partial length ZAK (M1 to L331 residues) expressed in bacterial expression system assessed as residual activity at 1 uM by Kinomescan method relative to control
[13] = target: Mitogen-activated protein kinase kinase kinase 4 (Homo sapiens) (UniProt Q9Y6R4); experiment: Inhibition of wild-type human partial length MAP3K4 (G1319 to E1608 residues) expressed in bacterial expression system assessed as residual activity at 1 uM by Kinomescan method relative to control
[14] = test system: Pfeiffer; experiment: Induction of apoptosis in human Pfeiffer cells assessed as induction of caspase-3 cleavage after 48 hrs by immunoblot; format: functional, cell-based
[15] = target: Serine/threonine-protein kinase Nek9 (Homo sapiens) (UniProt Q8TD19); experiment: Inhibition of wild-type human partial length NEK9 (P32 to R328 residues) expressed in bacterial expression system assessed as residual activity at 1 uM by Kinomescan method relative to control
[16] = target: Macrophage-stimulating protein receptor (Homo sapiens) (UniProt Q04912); experiment: Inhibition of wild-type human partial length MST1R (I1057 to L1363 residues) expressed in bacterial expression system assessed as residual activity at 1 uM by Kinomescan method relative to control
Chain of Macrophage-stimulating protein receptor (Homo sapiens) (Q04912 25-304 limits assumed): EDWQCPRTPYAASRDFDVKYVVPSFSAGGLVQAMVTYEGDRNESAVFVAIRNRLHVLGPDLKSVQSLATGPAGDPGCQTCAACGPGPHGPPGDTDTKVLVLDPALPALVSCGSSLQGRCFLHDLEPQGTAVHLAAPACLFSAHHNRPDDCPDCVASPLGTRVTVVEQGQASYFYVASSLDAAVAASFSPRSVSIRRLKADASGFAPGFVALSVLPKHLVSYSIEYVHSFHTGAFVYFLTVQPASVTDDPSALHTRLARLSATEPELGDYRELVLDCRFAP
Chain of Macrophage-stimulating protein receptor (Homo sapiens) (Q04912 310-1400 limits assumed): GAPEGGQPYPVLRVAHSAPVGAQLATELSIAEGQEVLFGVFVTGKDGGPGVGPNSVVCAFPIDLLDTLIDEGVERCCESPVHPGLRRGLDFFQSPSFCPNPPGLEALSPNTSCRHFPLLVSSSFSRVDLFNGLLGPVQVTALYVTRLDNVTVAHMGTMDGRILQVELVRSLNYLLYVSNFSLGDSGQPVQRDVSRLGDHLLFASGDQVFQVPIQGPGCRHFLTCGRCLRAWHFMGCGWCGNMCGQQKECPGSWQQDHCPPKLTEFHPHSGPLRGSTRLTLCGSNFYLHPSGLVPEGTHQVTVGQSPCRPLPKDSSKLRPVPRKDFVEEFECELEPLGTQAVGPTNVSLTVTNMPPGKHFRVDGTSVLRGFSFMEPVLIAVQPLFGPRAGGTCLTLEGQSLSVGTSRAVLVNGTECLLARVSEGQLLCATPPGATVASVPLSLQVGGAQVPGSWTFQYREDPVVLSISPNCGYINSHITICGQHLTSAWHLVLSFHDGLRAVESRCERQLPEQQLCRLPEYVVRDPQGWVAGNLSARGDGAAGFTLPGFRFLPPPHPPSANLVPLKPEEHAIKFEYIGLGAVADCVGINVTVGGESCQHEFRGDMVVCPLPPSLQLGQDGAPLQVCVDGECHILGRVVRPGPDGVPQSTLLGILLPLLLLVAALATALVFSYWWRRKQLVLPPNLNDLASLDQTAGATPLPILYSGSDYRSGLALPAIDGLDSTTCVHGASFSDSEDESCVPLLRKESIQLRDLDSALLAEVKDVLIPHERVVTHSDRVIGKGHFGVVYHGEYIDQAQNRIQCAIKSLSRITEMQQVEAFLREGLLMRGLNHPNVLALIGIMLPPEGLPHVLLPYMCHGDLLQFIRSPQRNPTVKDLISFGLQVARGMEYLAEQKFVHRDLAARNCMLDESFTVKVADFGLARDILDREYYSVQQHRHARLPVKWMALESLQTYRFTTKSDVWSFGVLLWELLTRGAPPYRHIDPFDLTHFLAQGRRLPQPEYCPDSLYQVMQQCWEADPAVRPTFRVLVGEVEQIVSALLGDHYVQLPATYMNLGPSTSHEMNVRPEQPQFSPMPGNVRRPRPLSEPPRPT

[17] = target: Tyrosine-protein kinase ITK/TSK (Homo sapiens) (UniProt Q08881); experiment: Inhibition of wild-type human partial length ITK (R335 to L620 residues) expressed in bacterial expression system assessed as residual activity at 1 uM by Kinomescan method relative to control
[18] = test system: Receptor-type tyrosine-protein kinase FLT3 (Homo sapiens), P36888 [D835V]; experiment: Inhibition of human partial length FLT3 D835V mutant (V592 to Y969 residues) expressed in bacterial expression system assessed as residual activity at 1 uM by Kinomescan method relative to control
[19] = target: Tyrosine-protein kinase Lck (Homo sapiens) (UniProt P06239); experiment: Inhibition of wild-type human partial length LCK (R207 to P509 residues) expressed in bacterial expression system assessed as residual activity at 1 uM by Kinomescan method relative to control
[20] = target: Platelet-derived growth factor receptor alpha (Homo sapiens) (UniProt P16234); experiment: Inhibition of wild-type human partial length PDGFRA (V575 to D1002 residues) expressed in mammalian expression system assessed as residual activity at 1 uM by Kinomescan method relative to control
[21] = target: Insulin receptor (Homo sapiens) (UniProt P06213); experiment: Inhibition of wild-type human partial length INSR (P997 to E1318 residues) expressed in mammalian expression system assessed as residual activity at 1 uM by Kinomescan method relative to control
[22] = target: Serine/threonine-protein kinase B-raf (Homo sapiens) (UniProt P15056); experiment: Inhibition of wild-type human partial length BRAF (S429 to E741 residues) expressed in mammalian expression system assessed as residual activity at 1 uM by Kinomescan method relative to control
[23] = target: Fibroblast growth factor receptor 4 (Homo sapiens) (UniProt P22455); experiment: Inhibition of wild-type human partial length FGFR4 (G402 to E713 residues) expressed in bacterial expression system assessed as residual activity at 1 uM by Kinomescan method relative to control
[24] = target: Inhibitor of nuclear factor kappa-B kinase subunit epsilon (Homo sapiens) (UniProt Q14164); experiment: Inhibition of wild-type human full length IKK-epsilon (M1 to V716 residues) expressed in mammalian expression system assessed as residual activity at 1 uM by Kinomescan method relative to control
[25] = target: Phosphatidylinositol 4-phosphate 5-kinase type-1 gamma (Homo sapiens) (UniProt O60331); experiment: Inhibition of wild-type human partial length PIP5K1C (M1 to T668 residues) expressed in mammalian expression system assessed as residual activity at 1 uM by Kinomescan method relative to control

With `C=CC(=O)Nc1cc(Nc2cc(-c3cccc(NC(=O)c4ccc(C(C)(C)C)cc4)c3C)cn(C)c2=O)ccc1C(=O)N1CCOCC1` the Activity [1] was 91%, the Activity [2] was 98% and the Activity [3] was 90%. It also gave an Activity [4] of 100%, an Activity [5] of 97% and an Activity [6] of 100%. For the same molecule, the Activity [7] was 98%, the Activity [8] was 82% and the Activity [9] was 97%. For the same molecule, the Activity [10] was 78%, the Activity [11] was 88% and the Activity [12] was 94%. For the same molecule, the Activity [13] was 89%, the Activity [14] was “Dose-dependent effect” and the Activity [15] was 98%. The Activity [16] was 97%, the Activity [17] was 100% and the Activity [18] was 70%. For the same molecule, the Activity [19] was 97%, the Activity [20] was 100% and the Activity [21] was 100%. The Activity [22] was 100%, the Activity [23] was 84% and the Activity [24] was 100%. The Activity [25] was 100%.
